Data taken from BindingDB's records for patent US20250214932 (Praxis Precision Medicines, 2025).

What follows are molecules tested against Voltage-dependent T-type calcium channel subunit alpha-1G (Homo sapiens, UniProt O43497) (assay: In Vitro Cav3.1 Single Point and IC50 (VDB) Data).
Method: The compound plate was created at 2× concentrated in the extracellular solution. The compound was diluted to 1:2 when added to the recording well. The amount of DMSO in the extracellular solution was held constant at the level used for the highest tested concentration. For the voltage clamp experiments on Cav3.1, data were sampled at 10 KHz. After establishment of the seal and the passage in the whole cell configuration, the cells were held at −120 mV. Cav3.1 current was evoked using a 100 ms step to −20 mV (to measure resting state block), followed by a 1600 ms step to −65 mV and a second 100 ms step to −20 mV (to measure voltage dependent block). The voltage protocol was applied every 15 seconds in the absence and in the presence of the compounds under investigation. […] Current amplitude (pA) was measured in the peak 1 and 2. The average of last 3 sweeps of each liquid period (vehicle, compound under investigation, full block) was calculated. Nickel-sensitive current was used to calculate the % of inhibition in the presence of the compound under investigation.

Voltage-dependent T-type calcium channel subunit alpha-1G, sequence (O43497 whole entry): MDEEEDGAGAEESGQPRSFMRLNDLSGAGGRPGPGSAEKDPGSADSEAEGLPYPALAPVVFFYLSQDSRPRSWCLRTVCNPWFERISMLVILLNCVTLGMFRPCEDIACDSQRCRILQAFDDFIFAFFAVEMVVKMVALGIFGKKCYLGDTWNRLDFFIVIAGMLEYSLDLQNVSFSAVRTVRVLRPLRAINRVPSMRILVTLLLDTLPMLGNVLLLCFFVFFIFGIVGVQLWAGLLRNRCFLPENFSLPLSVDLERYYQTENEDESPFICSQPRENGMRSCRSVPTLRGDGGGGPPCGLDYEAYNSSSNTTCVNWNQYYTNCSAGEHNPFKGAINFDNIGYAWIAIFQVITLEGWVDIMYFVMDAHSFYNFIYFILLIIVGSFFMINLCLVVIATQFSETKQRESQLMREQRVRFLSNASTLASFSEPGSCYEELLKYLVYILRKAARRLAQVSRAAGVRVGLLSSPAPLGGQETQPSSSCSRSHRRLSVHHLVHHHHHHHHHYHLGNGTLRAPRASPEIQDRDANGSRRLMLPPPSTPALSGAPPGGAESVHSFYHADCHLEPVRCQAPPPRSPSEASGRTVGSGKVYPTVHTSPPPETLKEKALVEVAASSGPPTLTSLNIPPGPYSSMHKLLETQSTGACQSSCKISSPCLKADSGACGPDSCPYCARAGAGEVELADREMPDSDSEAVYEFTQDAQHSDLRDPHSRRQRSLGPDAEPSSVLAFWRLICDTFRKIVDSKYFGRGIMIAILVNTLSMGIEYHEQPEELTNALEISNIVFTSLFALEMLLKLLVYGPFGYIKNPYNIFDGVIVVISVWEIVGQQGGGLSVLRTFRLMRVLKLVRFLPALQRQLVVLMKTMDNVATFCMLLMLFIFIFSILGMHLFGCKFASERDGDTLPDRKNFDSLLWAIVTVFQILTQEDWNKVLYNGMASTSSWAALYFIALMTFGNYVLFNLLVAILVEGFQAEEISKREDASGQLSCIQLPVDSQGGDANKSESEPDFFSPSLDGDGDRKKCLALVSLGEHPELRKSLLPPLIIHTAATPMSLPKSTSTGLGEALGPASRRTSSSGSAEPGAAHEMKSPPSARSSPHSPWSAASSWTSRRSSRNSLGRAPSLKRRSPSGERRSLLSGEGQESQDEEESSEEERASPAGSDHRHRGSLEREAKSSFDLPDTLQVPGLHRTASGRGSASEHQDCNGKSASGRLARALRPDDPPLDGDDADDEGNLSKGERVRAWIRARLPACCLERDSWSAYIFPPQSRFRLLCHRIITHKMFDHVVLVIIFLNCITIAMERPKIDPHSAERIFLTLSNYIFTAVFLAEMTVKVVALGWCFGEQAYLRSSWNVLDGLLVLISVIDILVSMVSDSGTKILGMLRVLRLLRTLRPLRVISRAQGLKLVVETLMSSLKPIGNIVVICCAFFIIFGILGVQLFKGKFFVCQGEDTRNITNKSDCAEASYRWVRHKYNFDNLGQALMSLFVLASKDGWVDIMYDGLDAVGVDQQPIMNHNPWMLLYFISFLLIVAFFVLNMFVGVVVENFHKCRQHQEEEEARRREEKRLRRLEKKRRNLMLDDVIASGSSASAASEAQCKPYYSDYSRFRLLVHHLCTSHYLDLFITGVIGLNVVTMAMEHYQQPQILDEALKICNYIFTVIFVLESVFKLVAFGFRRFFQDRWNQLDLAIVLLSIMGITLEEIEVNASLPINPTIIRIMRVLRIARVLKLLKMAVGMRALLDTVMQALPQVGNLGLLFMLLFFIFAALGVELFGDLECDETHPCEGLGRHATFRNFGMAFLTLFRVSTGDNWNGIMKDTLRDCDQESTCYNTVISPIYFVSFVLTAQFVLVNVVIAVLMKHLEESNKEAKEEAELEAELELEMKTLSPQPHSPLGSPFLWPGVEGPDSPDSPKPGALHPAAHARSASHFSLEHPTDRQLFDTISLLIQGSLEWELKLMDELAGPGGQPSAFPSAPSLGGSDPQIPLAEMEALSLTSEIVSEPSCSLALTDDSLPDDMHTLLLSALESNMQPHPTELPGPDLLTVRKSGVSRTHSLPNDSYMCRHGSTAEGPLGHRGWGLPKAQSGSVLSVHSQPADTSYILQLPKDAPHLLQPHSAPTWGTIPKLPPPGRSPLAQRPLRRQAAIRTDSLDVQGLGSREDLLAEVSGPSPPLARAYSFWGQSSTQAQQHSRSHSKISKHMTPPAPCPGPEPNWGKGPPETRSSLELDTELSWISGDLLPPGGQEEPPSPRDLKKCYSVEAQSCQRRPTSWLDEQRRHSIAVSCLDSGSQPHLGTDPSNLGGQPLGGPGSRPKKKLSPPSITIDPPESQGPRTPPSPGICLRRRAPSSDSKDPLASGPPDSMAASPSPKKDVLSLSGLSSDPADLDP

Compound | IC50 [nM]
COc1cc(F)cc(NC(=O)C2CCC3(CC2)CN(CC(=O)NC(C)(C)C)C3)c1 [US20250214932, Example 46] | 218
Cc1cc(F)cc(NC(=O)C2CCC3(CC2)CN(CC(=O)NC(C)(C)C)C3)c1 [US20250214932, Example 48] | 196
O=C(Nc1cc(F)cc(C(F)F)c1)C1CCC2(CC1)CN(CCNC(=O)C1(C(F)(F)F)CCC1)C2 [US20250214932, Example 52] | 261
O=C(Nc1cc(F)cc(Cl)c1)C1CCC2(CC1)CN(CC(O)C1CCCCC1)C2 (centres undefined) [US20250214932, Example 68] | 170

Now from value to molecule:

IC50 [nM] | Compound
< 78.2 | O=C(CN1CC2(CCC(C(=O)Nc3cc(F)cc(C(F)F)c3)CC2)C1)NC1(C(F)(F)F)CC1 [US20250214932, Example 79]
163 | O=C(CN1CC2(CCC(C(=O)Nc3cc(F)cc(C(F)F)c3)CC2)C1)NC1(C(F)(F)F)CCC1 [US20250214932, Example 85]
407 | O=C(Nc1cc(F)cc(C(F)F)c1)C1CCC2(CC1)CN(CC(F)(F)C1CCCC1)C2 [US20250214932, Example 100]
1360 | COc1cc(Cl)cc(NC(=O)C2CCC3(CC2)CN(CC2(C#N)CC2)C3)c1 [US20250214932, Example 129]
188 | O=C(NC12CC3CC(CC(C3)C1)C2)C1CCC2(CC1)CN(CC1(O)CCC(F)(F)CC1)C2 [US20250214932, Example 153]
